ChEMBL document CHEMBL1201862, “PubChem BioAssay data set” (2004)
One block for each molecule: values may come before it. Active and inactive are the calls of the source.

What was measured:
[1] = system: CHO; assay: cytotoxicity in TLR9-MyD88 CHO cells, dose response, cytotoxicity control for TLR9-MyD88 binding inhibitor project, cell-based, luminescence (AID 588339); assay type: functional, hamster; details: Cricetulus griseus;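 further: CHO cells stably coexpressing TLR9 and MyD88 fusions from primary screen; compound exposure lasted 48 hours before viability readout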
[2] = target: T1, Mannose-6-phosphate isomerase (Homo sapiens, UniProt P34949); assay: PMI enzyme inhibitors, confirmation, biochemical, fluorescence intensity (AID 1535)
T1 sequence (P34949 whole entry): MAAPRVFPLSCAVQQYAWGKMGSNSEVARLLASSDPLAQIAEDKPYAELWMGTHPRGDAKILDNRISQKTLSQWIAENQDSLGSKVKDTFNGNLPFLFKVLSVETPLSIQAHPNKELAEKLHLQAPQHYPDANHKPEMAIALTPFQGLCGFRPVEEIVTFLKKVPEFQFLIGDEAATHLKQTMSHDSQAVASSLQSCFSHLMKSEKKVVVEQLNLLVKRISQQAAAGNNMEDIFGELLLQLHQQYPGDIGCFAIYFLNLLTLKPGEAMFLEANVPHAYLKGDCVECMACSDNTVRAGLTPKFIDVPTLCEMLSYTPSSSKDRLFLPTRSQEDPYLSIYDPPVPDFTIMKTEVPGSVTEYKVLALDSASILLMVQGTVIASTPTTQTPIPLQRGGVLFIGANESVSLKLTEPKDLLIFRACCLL

[3] = system: HEK293; assay: cells; assay type: functional, cell-based; details: Homo sapiens
[4] = target: T2, Nuclear receptor subfamily 0 group B member 1 (Homo sapiens, UniProt P51843); assay: Luminescence-based cell-based high throughput dose response assay for inhibitors of the orphan nuclear receptor subfamily 0, group B, member 1 (DAX1; NR0B1). [Related pubchem assays (depositor defined):AID504766, AID504790]; assay type: functional
T2 sequence (P51843 whole entry): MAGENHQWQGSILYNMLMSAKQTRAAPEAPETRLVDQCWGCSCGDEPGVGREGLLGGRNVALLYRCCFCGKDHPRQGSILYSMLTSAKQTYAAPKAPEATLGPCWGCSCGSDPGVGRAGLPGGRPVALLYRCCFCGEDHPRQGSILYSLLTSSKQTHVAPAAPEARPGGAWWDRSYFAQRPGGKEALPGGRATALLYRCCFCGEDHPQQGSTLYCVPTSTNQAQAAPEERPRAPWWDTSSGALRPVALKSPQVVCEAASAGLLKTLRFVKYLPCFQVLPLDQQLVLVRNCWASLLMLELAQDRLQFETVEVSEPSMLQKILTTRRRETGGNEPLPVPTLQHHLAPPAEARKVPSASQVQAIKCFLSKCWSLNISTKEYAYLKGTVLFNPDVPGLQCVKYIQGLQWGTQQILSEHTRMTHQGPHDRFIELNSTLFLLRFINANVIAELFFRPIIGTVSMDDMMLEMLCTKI

[5] = target: Alkaline phosphatase, placental type (Homo sapiens, UniProt P05187); assay: PLAP enzyme inhibitors, confirmation, biochemical, luminescence (AID 1512); assay type: functional
[6] = target: T3, Alkaline phosphatase, tissue-nonspecific isozyme (Homo sapiens, UniProt P05186); assay: human TNAP enzyme inhibitors, SAR follow-up, biochemical, luminescent, dose response (AID 1056)
T3 sequence (P05186 whole entry): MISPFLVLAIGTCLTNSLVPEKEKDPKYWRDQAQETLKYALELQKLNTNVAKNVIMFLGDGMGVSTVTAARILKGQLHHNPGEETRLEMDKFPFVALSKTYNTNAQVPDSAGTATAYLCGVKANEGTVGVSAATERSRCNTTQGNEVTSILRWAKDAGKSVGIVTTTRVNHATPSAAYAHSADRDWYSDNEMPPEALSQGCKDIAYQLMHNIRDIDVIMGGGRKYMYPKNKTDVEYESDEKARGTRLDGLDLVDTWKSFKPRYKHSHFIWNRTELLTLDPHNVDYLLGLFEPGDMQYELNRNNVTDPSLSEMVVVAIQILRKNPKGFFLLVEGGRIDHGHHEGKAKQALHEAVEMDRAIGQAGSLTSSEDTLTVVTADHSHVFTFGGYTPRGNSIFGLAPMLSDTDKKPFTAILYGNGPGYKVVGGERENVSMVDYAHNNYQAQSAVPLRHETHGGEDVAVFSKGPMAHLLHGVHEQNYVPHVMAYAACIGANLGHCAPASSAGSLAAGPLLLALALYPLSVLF

[7] = target: T4, Coagulation factor XII (Homo sapiens, UniProt P00748); assay type: functional;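 further: activated factor XIIa alpha cleaving a fluorogenic AMC peptide substrate; inhibitor potency from loss of enzyme activity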
T4 sequence (P00748 whole entry): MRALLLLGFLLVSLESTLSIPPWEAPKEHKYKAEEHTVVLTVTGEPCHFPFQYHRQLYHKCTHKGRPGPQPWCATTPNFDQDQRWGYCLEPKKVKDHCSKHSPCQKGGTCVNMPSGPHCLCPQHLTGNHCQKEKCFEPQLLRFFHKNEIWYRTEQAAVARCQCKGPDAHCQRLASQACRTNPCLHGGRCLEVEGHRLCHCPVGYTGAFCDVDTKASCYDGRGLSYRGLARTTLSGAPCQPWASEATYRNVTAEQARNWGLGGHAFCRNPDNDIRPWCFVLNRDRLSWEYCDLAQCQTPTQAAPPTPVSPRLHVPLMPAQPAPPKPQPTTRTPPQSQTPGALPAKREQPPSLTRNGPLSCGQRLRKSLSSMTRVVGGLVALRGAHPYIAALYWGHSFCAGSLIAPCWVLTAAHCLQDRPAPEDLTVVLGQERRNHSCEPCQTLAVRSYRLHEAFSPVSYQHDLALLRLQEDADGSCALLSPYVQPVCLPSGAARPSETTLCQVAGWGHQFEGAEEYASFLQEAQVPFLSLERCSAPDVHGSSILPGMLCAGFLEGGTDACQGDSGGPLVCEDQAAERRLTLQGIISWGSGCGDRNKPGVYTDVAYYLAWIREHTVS

[8] = target: T5, Hexokinase (Trypanosoma brucei, UniProt Q38C41); assay: Confirmation assay for inhibitors of Trypanosoma brucei hexokinase 1-Analogue-first series. [Related pubchem assays (depositor defined):AID1430, AID1632, AID2516, AID2560, AID2579, AID2600, AID449725, AID492951]; assay type: functional
T5 sequence (Q38C41 whole entry): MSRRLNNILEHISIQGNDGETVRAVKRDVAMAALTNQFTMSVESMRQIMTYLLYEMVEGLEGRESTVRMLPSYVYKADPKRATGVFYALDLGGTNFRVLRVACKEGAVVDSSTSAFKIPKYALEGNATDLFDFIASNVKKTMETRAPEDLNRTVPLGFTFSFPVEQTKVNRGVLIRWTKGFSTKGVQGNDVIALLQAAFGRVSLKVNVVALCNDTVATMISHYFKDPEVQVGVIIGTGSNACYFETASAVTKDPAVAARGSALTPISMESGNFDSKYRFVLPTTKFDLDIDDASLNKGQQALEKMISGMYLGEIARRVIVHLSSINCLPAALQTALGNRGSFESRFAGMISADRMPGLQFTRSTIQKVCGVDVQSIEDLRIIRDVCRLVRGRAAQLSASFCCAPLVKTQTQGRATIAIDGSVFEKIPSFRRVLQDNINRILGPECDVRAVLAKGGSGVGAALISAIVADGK

[9] = target: Glyceraldehyde-3-phosphate dehydrogenase (Homo sapiens, UniProt P04406)
[10] = system: H9c2; assay: cells; assay type: functional, cell-based; details: Rattus norvegicus, H9c2, Myocardium;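 further: confirmatory concentration-response retest of ultra-high-throughput screening hits for modulation of myocardial damage; cell death induced by hydrogen peroxide oxidative stress; compound pretreatment for 60 min then peroxide exposure for 2 h; potency is for protecting the cells against peroxide damage rather than for killing them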
[11] = HEp-2 cell cytotoxicity, dose response, cytotoxicity control for RSV inhibitor project, HTS (AID 2410); assay type: functional; details: human respiratory syncytial virus
[12] = target: G-protein coupled receptor 55 (Homo sapiens, UniProt Q9Y2T6); assay: GPR55 agonists via beta-arrestin recruitment, primary screen, imaging, U2OS cells, beta-arrestin-GFP redistribution (AID 1961); assay type: functional
[13] = target: Voltage-dependent T-type calcium channel subunit alpha-1H (Homo sapiens, UniProt O95180); assay type: functional;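 further: channel activity triggered by adding a high calcium stimulation buffer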
[14] = system: HeLa; assay: HeLa cell cytotoxicity, dose response, cytotoxicity control for MITF activator project, CellTiter-Glo luminescence, cherry-pick samples (AID 540259); assay type: functional, cell-based; details: Homo sapiens
[15] = target: Cytochrome P450 2D6 (Homo sapiens, UniProt P10635);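 further: CYP2D6 member of a cytochrome P450 panel assay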
[16] = target: T6, Aminopeptidase N (Plasmodium falciparum FcB1/Columbia, UniProt O96935); assay: P. falciparum M1AAP inhibitors, biochemical, fluorogenic H-Leu-NHMec substrate, 1536-well (AID 1445); design: species or system Plasmodium falciparum 3D7, 3D7
T6 sequence (O96935 whole entry): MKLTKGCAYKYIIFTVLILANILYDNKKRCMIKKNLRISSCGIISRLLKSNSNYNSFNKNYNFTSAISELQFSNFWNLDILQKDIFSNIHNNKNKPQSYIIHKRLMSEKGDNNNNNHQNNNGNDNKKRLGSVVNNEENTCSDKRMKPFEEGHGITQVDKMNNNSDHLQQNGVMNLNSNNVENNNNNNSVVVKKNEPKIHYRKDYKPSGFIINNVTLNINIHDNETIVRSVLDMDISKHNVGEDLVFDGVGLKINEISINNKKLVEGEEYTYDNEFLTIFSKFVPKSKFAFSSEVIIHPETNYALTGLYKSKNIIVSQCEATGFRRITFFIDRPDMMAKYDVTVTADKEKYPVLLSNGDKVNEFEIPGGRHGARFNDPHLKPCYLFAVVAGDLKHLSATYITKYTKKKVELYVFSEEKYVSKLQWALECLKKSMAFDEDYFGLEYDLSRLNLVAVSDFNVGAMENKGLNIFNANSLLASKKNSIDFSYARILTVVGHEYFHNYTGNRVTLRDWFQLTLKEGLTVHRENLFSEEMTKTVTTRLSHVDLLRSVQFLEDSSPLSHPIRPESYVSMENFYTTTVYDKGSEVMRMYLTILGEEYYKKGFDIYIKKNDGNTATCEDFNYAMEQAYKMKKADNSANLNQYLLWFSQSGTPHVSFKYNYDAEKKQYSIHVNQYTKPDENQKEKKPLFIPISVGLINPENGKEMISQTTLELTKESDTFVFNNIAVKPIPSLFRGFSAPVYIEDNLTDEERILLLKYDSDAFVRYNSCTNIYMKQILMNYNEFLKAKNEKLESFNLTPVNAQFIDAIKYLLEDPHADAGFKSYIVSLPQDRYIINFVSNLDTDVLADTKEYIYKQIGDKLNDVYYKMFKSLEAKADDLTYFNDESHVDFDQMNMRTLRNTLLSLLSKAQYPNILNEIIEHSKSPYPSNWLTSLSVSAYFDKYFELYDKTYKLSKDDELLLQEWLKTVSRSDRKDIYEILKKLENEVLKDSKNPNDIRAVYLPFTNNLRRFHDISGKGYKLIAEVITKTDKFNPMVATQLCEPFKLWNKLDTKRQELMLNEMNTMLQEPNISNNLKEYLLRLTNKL

[17] = target: Large T antigen (Simian virus 40, UniProt P03070); assay type: functional, Betapolyomavirus macacae;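 further: Confirmatory-stage PubChem screen for compounds that inhibit SV40 T antigen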
[18] = target: T7, Cytochrome P450 1A2 (Homo sapiens, UniProt P05177);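 further: PubChem cytochrome P450 panel assay, CYP1A2 panel member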
T7 sequence (P05177 whole entry): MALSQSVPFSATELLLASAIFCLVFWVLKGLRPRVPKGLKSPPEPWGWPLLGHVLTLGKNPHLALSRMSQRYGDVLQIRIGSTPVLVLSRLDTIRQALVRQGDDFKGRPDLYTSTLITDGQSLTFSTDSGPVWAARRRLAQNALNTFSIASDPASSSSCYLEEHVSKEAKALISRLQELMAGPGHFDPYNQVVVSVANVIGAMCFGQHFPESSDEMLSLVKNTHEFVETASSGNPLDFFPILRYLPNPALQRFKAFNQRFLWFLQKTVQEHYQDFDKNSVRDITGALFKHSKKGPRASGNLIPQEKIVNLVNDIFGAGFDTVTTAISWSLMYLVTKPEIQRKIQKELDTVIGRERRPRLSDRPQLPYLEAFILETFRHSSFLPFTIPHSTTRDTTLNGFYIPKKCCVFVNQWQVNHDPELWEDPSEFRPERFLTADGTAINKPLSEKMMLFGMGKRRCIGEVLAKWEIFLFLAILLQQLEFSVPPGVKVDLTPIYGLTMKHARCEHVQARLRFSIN

[19] = target: Cytochrome P450 3A4 (Homo sapiens, UniProt P08684);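 further: CYP3A4 tested as one member of a cytochrome P450 panel screen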
Sequence of Cytochrome P450 3A4 (P08684 whole entry): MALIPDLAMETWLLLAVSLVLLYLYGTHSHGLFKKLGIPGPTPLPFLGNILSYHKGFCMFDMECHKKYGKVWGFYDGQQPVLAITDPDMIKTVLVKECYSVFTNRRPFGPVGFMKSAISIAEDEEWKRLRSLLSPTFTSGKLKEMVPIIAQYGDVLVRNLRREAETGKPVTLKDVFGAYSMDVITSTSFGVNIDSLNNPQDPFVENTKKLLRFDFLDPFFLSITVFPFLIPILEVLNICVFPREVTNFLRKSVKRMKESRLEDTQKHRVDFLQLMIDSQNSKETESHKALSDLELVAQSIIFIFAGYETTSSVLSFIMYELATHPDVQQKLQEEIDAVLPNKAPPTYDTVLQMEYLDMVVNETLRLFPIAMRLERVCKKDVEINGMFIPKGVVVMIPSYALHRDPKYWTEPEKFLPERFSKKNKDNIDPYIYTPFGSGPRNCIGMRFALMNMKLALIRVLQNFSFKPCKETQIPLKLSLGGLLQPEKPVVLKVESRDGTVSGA

Sequence of G-protein coupled receptor 55 (Q9Y2T6 whole entry): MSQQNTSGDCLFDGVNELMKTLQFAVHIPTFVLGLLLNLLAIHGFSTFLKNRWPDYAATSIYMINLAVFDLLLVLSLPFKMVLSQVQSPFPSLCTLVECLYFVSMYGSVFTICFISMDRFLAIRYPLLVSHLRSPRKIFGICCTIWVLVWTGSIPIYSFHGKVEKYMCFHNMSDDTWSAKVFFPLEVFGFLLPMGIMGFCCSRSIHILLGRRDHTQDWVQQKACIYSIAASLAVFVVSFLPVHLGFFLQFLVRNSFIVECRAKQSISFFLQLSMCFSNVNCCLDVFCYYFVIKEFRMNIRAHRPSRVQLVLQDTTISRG
Sequence of Alkaline phosphatase, placental type (P05187 whole entry): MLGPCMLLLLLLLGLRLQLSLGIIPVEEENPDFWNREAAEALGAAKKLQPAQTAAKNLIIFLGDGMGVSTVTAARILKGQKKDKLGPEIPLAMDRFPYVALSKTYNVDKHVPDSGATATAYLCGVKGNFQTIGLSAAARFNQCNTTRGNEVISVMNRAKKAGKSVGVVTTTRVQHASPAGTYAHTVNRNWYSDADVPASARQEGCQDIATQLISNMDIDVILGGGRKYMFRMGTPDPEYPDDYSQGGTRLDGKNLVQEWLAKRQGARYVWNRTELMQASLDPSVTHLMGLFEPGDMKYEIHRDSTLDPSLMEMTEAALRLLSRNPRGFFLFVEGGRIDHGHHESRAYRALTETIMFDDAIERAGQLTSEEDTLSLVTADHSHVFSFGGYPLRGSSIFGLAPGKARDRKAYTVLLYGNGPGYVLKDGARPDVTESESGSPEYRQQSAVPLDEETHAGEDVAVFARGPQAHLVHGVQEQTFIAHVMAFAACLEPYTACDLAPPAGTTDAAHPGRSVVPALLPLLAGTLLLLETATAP
Sequence of Glyceraldehyde-3-phosphate dehydrogenase (P04406 whole entry): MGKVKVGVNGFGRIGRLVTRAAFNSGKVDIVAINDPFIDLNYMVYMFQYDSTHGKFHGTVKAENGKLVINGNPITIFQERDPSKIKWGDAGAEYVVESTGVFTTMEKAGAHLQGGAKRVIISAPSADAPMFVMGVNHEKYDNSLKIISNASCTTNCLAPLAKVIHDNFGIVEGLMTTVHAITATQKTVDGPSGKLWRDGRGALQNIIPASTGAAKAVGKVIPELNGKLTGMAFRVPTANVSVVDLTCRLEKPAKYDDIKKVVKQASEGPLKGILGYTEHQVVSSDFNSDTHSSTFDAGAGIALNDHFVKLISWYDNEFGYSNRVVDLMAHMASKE
Sequence of Cytochrome P450 2D6 (P10635 whole entry): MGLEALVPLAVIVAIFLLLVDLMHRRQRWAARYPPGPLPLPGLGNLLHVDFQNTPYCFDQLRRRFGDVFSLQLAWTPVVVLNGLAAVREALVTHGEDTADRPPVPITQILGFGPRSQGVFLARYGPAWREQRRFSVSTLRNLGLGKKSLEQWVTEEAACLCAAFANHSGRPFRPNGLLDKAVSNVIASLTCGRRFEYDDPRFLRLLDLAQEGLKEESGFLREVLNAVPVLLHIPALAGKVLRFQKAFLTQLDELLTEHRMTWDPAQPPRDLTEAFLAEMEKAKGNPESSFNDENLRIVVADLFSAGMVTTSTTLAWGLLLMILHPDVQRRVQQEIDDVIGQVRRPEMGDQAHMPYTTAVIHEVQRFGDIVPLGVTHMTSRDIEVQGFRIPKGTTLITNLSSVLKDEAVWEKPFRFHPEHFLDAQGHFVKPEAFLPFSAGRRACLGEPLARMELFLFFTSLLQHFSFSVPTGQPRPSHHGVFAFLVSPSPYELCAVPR
Sequence of Voltage-dependent T-type calcium channel subunit alpha-1H (O95180 whole entry): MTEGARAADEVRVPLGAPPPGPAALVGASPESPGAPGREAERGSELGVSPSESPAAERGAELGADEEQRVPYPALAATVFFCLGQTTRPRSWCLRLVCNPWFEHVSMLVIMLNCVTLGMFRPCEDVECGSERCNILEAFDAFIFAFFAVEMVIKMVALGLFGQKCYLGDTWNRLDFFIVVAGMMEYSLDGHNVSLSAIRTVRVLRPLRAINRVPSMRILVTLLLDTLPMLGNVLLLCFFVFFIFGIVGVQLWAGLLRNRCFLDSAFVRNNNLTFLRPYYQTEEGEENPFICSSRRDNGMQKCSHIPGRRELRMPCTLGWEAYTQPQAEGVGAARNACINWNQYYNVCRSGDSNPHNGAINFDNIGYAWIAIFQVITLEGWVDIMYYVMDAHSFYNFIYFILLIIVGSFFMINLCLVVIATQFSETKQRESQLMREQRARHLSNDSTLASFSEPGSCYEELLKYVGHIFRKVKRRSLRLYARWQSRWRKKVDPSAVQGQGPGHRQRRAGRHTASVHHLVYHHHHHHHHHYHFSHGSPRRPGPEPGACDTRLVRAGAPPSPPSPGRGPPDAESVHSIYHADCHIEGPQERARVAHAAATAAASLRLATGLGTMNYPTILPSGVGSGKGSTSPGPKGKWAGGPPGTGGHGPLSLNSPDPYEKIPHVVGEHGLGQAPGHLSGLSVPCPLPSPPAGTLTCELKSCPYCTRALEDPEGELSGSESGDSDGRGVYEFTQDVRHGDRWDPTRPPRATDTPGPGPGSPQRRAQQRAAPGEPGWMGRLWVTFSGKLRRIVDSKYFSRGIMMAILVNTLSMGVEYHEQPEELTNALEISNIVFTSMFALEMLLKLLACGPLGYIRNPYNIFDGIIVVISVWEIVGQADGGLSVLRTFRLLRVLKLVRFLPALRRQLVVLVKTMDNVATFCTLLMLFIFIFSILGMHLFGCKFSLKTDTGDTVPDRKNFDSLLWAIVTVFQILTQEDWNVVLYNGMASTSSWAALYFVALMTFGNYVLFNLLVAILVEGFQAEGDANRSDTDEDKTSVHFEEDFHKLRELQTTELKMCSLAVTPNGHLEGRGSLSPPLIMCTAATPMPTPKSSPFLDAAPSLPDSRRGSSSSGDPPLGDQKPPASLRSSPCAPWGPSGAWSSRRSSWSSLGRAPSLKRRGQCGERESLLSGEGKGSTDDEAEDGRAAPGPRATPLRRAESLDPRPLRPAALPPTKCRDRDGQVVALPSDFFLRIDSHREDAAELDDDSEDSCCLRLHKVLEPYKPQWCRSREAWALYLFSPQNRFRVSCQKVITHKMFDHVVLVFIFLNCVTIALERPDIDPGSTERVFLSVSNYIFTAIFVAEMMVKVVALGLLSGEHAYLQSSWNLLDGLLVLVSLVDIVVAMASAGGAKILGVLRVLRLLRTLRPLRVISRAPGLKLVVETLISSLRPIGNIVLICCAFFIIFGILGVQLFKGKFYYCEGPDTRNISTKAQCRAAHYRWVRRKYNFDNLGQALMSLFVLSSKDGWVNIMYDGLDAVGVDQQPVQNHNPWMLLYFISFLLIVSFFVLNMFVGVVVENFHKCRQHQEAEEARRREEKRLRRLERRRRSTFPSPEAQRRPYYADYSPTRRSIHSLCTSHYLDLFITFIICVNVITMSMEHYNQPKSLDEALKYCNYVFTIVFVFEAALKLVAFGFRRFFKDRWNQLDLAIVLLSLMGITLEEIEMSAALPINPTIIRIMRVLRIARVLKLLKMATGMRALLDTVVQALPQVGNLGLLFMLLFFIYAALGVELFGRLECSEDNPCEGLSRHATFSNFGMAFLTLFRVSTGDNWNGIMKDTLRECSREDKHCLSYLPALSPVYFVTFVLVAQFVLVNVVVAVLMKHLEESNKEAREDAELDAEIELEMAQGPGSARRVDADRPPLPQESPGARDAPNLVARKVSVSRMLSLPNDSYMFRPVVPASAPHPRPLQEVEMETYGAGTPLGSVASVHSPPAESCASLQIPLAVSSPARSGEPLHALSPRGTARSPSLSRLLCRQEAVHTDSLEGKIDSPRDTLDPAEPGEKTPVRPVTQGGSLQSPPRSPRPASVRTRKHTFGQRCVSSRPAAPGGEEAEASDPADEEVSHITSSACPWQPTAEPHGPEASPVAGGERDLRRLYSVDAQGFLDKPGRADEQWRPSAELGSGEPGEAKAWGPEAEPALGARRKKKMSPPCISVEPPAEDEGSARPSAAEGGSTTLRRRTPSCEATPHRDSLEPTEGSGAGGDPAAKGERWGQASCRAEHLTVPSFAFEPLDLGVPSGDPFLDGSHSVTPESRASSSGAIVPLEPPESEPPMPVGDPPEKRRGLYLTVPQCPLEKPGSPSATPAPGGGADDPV

Structure (SMILES): O=C(NCc1cccc(C(F)(F)F)c1)c1cccc2c1C(=O)c1ccc(N3CCC(Cc4ccccc4)CC3)cc1S2(=O)=O
IC50 [1]: > 49.8 µM (inactive)

Structure (SMILES): O=C(COC(=O)c1[nH]nc2ccccc12)Nc1ccccc1
IC50 [3]: > 67.5 µM (inactive)
IC50 [4]: > 67.5 µM (inactive)

Structure (SMILES): COc1ccc(C(=O)Nc2ccccc2C(=O)O)cc1
IC50 [8]: > 25 µM (inactive)

Structure (SMILES): C#CCOc1nc(Nc2cccc([N+](=O)[O-])c2)nc(OCC#C)n1
IC50 [7]: > 50 µM (inactive)
IC50 [10]: > 79 µM (inactive)

Structure (SMILES): COC(=O)c1ccc(Cl)cc1NC(=O)c1ccc(Cl)cc1
IC50 [8]: > 25 µM (inactive)

Structure (SMILES): COc1ccc(C2=NN(c3nc(-c4ccc(CNC(C)=O)cc4)cs3)C(c3ccco3)C2)cc1 (stereo not given)
EC50 [12]: 1.04 µM (active)

Structure (SMILES): Cc1csc(NC(=O)Cc2c[nH]c3ccccc23)n1
EC50 [13]: 9.34 µM (active)
IC50 [7]: > 50 µM (inactive)
AC50 [14]: 320 µM (active)
AC50 [15]: 22.4 µM (inconclusive)

Structure (SMILES): COc1cccc(C(=O)Nc2cc(Cl)ccc2C(=O)O)c1
IC50 [8]: 17.9 µM (active)

Structure (SMILES): CCOC(=O)c1c(N2C(=O)Nc3cc(Cl)c(Cl)cc3N2O)sc2c1CCCCC2
IC50 [16]: 81.7 µM (active)
IC50 [17]: > 100 µM (active)
AC50 [18]: 39.8 µM (inconclusive)
AC50 [19]: 10 µM (inconclusive)

Second part, led by results:

IC50 [2]: > 100 µM (inactive)
Structure (SMILES): Clc1ccnc(/N=c2\ssnc2Cl)c1

IC50 [5]: 2.53 µM (active)
IC50 [6]: 19.5 µM (active)
Structure (SMILES): C=CCn1c(SCC(=O)c2ccc(O)c(O)c2)nnc1-c1ccccc1

IC50 [7]: > 50 µM (inactive)
Structure (SMILES): O=C(Cn1nnc(-c2ccccc2)n1)OCc1csc(-c2ccccc2)n1

IC50 [9]: > 100 µM (not active)
IC50 [5]: > 100 µM (inactive)
IC50 [6]: 1.09 µM (active)
Structure (SMILES): O=C(O)c1cc(-c2cc(F)c(Cl)cc2Cl)n[nH]1

EC50 [12]: 1.15 µM (active)
Structure (SMILES): COc1cc2c(cc1NC(=O)CSc1ccc(C)cc1)oc1ccccc12
CC50 [11]: 28.4 µM (active)

EC50 [12]: > 32 µM (inactive)
Structure (SMILES): COCc1nc(-c2cc(OC)c(OC)c(OC)c2)no1

IC50 [9]: > 100 µM (not active)
IC50 [6]: 38.2 µM (active)
Structure (SMILES): COc1ccc(-c2cc(C(=O)O)[nH]n2)c(OC)c1

IC50 [5]: > 100 µM (inactive)
Structure (SMILES): Cc1ccccc1-n1nc(CSc2nc3ccccc3[nH]2)c(-c2ccccc2)c1N
